Measured values reported in ChEMBL document CHEMBL5046276 (J Med Chem, 2022).
pIC50: −log10 of the molar value. Active and inactive are the calls of the source. No cut-off for these calls is given here.

What was measured:
Plasmodium falciparum [1] = assay: Antimalarial activity against asexual blood stage quinine-resistant Plasmodium falcipuram C2A assessed as parasite growth inhibition incubated for 72 hrs by SYBR Green I staining based fluorescence analysis; assay type: functional, organism-based
Plasmodium falciparum [2] = assay: Antimalarial activity against asexual blood stage chloroquine-resistant Plasmodium falciparum Dd2 assessed as parasite growth inhibition incubated for 72 hrs by SYBR Green I staining based fluorescence analysis; assay type: functional, organism-based; conditions: Dd2, 72 h
[3] = Cytotoxicity against HEK293T cells incubated for 72 hrs by CCK-8 assay; conditions: human
Plasmodium falciparum [4] = assay: Antimalarial activity against asexual blood stage wild-type Plasmodium falciparum 3D7 assessed as parasite growth inhibition incubated for 72 hrs by SYBR Green I staining based fluorescence analysis; assay type: functional, organism-based; conditions: 3D7, 72 h
[5] = Metabolic stability in mouse liver microsomes assessed as intrinsic clearance at […] incubated for 45 mins in presence of NADPH by LC/MS analysis; assay type: ADME, Microsome; conditions: read-out: CLH
Plasmodium falciparum [6] = assay: Antimalarial activity against asexual blood stage sulfadoxine-pyrimethamine/mefloquine-resistant Plasmodium falcipuram CP286 assessed as parasite growth inhibition incubated for 72 hrs by SYBR Green I staining based fluorescence analysis; assay type: functional, organism-based; conditions: CP286, 72 h
[7] = Selectivity index, ratio of IC50 for cytotoxicity against human HepG2 cells to IC50 for antimalarial activity against asexual blood stage wild-type Plasmodium falciparum 3D7; assay type: toxicity, cell-based; conditions: read-out: Ratio IC50
Plasmodium falciparum [8] = assay: Antimalarial activity against asexual blood stage chloroquine-resistant Plasmodium falcipuram GB4 assessed as parasite growth inhibition incubated for 72 hrs by SYBR Green I staining based fluorescence analysis; assay type: functional, organism-based; conditions: GB4, 72 h
[9] = Cytotoxicity against human HepG2 cells incubated for 72 hrs by CCK-8 assay
Plasmodium yoelii [10] = assay: Antimalarial activity against blood stage Plasmodium yoelii infected in BALB/c mouse assessed as parasite killing by measuring RBC cells in blood smear at 60 mg/kg, ip qd for 5 days by microscopic analysis; assay type: functional, organism-based; conditions: Erythrocyte, time 5.0 day
[11] = Metabolic stability in mouse liver microsomes assessed as half life at […] incubated for 45 mins in presence of NADPH by LC/MS analysis; assay type: ADME, Microsome; conditions: for half-life: liver microsomes
[12] = Selectivity index, ratio of IC50 for cytotoxicity against HEK293T cells to IC50 for antimalarial activity against asexual blood stage wild-type Plasmodium falciparum 3D7; assay type: toxicity, cell-based; conditions: human, read-out: Ratio IC50
Plasmodium yoelii [13] = assay: Antimalarial activity against blood stage Plasmodium yoelii infected in BALB/c mouse assessed as parasitemia at 60 mg/kg, ip qd for 5 days and measured after 16 days; assay type: functional; conditions: time 16 day
Plasmodium falciparum [14] = assay: (§1) Antimalarial activity against ART-resistant Plasmodium falcipuram 6218 harbouring C580Y mutant infected in human RBC assessed as reduction in parasitemia in blood smear by measuring parasite survival ratio at ring stage at upto 700 nM incubated for 6 hrs followed by compound washout and replacement with fresh medium without compounds and measured after 66 hrs by ring stage survival assay; assay type: functional; conditions: dose nM <=700
Plasmodium falciparum [15] = assay: as §1, with “wild-type” for “ART-resistant”, “3D7” for “6218 harbouring C580Y mutant”; assay type: functional; conditions: dose nM <=700
Plasmodium falciparum [16] = assay: as §1, with “6320” for “6218”; assay type: functional; conditions: dose nM <=700
[17] = target: T1, NAD-dependent protein deacetylase sirtuin-2 (Homo sapiens, UniProt Q8IXJ6); assay: Inhibition of human C-terminal His-tagged SIRT2 (50 to 356 residues) expressed in Escherichia coli using Ac-peptide as substrate incubated for 4 hrs followed by trypsin addition and further incubated for 2 hrs
T1 sequence (Q8IXJ6 whole entry): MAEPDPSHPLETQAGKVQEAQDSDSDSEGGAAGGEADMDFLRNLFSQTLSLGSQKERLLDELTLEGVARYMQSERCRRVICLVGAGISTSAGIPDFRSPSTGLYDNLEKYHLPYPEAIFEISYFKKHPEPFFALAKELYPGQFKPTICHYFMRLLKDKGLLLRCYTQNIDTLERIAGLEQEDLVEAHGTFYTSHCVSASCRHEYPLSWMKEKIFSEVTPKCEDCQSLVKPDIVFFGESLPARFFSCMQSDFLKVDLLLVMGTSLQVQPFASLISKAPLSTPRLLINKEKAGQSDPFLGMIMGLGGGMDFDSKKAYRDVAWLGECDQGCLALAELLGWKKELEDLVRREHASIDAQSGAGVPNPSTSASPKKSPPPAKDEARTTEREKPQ

Plasmodium yoelii [18] = assay: Antimalarial activity against blood stage Plasmodium yoelii infected in BALB/c mouse assessed as parasitemia at 60 mg/kg, ip qd for 5 days and measured after 14 days; assay type: functional; conditions: time 14 day

Row | pIC50 [17] | Structure (SMILES) | pIC50 (Plasmodium falciparum [1]) | pIC50 (Plasmodium falciparum [2]) | IC50 at 72 h [3] [nM] | pIC50 (Plasmodium falciparum [4]) | CLint scaled [5] [mL/min/kg] | pIC50 (Plasmodium falciparum [6]) | selectivity ratio [7] | pIC50 (Plasmodium falciparum [8]) | IC50 at 72 h [9] [nM] | Activity (Plasmodium yoelii [10]) | half-life [11] [h] | selectivity ratio [12] | Activity (Plasmodium yoelii [13]) [%] | Activity (Plasmodium falciparum [14]) [%] | Activity (Plasmodium falciparum [15]) [%] | Activity (Plasmodium falciparum [16]) [%] | Activity (Plasmodium yoelii [18]) [%] | t1/2 ([11]; microsomes, 0.75 h, 10000 µM) [h]
1 |  | Cl.Cn1c(CN2CC3(CCN(c4ncc(C(=O)NO)cn4)C3)C2)nc2ccccc21 | 8.42 | 8.40 | 9330 | 8.74 | 40.7 | 8.01 | > 5140 | 8.33 | > 9450 | inactive | 2.23 | 5070 | 16.57 |  |  |  |  | 
2 |  | Cl.Cn1cc(CN2CC3(CCN(c4ncc(C(=O)NO)cn4)C3)C2)c2ccc(Br)cc21 |  | 8.62 | 720 | 8.71 | 13.7 |  | 381 |  | 750 |  | 6.64 | 365 |  |  |  |  |  | 
3 |  | C[C@H]1[C@@H](O)O[C@@H]2O[C@@]3(C)CC[C@H]4[C@H](C)CC[C@@H]1[C@@]24OO3 [ARTENIMOL] | 8.68 | 8.56 |  | 8.55 |  | 8.09 |  | 8.63 |  |  |  |  |  |  |  |  |  | 
4 |  | C[C@@H]1CC[C@H]2[C@@H](C)C(=O)O[C@@H]3O[C@@]4(C)CC[C@@H]1[C@]32OO4 [ARTEMISININ] |  |  |  |  |  |  |  |  |  |  |  |  |  | 8 | 0.1 | 8 |  | 
5 | 5.26 | Cc1ccc(C(=O)Nc2ccc(S(=O)(=O)O)c3cc(S(=O)(=O)O)cc(S(=O)(=O)O)c23)cc1NC(=O)c1cccc(NC(=O)Nc2cccc(C(=O)Nc3cc(C(=O)Nc4ccc(S(=O)(=O)O)c5cc(S(=O)(=O)O)cc(S(=O)(=O)O)c45)ccc3C)c2)c1 [SURAMIN] |  |  |  |  |  |  |  |  |  |  |  |  |  |  |  |  |  | 
6 |  | Cl.Cn1cc(CN2CC3(CCN(c4ncc(C(=O)NO)cn4)C3)C2)c2ncccc21 | 8.42 | 8.51 | > 20000 | 8.57 |  | 7.88 | > 7490 | 8.35 | 20000 | inactive |  | > 7490 |  |  |  |  | 46.37 | 2.9965
7 |  | Cl.O=C(NO)c1cnc(N2CCC3(CN(Cc4cnc5ccccc5c4)C3)C2)nc1 |  | 8.59 | 3620 | 8.42 | 410 |  | 537 |  | 2040 |  | 0.222 | 953 |  |  |  |  |  | 
